Source: patent publication US10351575B2, “Bicyclic urea, thiourea, guanidine and cyanoguanidine compounds useful for the treatment of pain” (Array BioPharma Inc., priority 2012, dated 2019)

Legend:
Assay in all cases: KinaseProfiler off-target kinase profiling
Assay type in all cases: biochemical
Conditions in all cases: 10 μM, ATP near Km
AKT2 = AKT2 (Homo sapiens (Human), UniProt P31751)
Description: (§1) Representative compounds (Examples 12, 32, 26 and 2) of the invention were tested for off-target kinase activity at a concentration of 10 μM by Millipore, Inc. in their KinaseProfiler™ service against all the kinases available in their full kinase panel. Compounds were run in duplicate at a concentration of ATP near the Km for each individual kinase according to Millipore's specifications. The results are shown in Table B. Data are reported as percent of control (POC) and are the average of the two replicates.

AURKA = AURKA (Homo sapiens (Human), UniProt O14965)
Sequence of AURKA (O14965 whole entry): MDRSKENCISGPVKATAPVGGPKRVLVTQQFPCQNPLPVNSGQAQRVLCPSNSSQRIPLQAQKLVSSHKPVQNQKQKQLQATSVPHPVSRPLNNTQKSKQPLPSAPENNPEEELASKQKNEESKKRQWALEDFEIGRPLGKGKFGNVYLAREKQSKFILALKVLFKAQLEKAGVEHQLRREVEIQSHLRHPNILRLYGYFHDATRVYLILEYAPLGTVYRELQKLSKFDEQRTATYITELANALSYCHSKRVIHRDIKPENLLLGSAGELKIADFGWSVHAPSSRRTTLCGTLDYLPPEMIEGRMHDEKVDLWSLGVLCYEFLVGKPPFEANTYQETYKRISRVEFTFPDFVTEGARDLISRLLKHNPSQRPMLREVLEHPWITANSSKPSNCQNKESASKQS
Description: as §1

BrSK1 = BrSK1 (Homo sapiens (Human), UniProt Q8TDC3)
Sequence of BrSK1 (Q8TDC3 whole entry): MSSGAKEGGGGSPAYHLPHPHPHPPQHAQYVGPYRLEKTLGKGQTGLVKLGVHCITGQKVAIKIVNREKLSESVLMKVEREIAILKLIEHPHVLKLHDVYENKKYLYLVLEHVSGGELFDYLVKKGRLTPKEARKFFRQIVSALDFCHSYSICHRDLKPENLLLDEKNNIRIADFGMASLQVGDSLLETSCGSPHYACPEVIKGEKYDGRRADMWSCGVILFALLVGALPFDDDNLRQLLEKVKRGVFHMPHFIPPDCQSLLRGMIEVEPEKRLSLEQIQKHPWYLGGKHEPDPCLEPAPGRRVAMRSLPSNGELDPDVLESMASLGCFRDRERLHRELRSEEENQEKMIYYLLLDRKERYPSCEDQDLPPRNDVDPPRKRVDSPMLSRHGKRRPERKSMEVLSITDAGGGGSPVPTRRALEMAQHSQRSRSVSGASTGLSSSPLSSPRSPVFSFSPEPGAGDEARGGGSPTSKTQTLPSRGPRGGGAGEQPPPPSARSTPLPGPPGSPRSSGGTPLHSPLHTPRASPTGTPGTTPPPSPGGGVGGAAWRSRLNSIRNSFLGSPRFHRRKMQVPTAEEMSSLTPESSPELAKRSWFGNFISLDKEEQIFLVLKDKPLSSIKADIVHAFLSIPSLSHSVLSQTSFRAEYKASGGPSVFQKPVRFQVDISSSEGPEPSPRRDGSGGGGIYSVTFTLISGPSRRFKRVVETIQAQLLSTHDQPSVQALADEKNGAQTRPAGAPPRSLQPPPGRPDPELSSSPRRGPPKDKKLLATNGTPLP
Description: as §1

CAMK2g = CAMK2g (Homo sapiens (Human), UniProt Q13555)
Description: as §1

CK1_y = test system: CK1_y
Description: as §1

CK1delta = CK1delta (Homo sapiens (Human), UniProt P48730)
Description: as §1

CLK2 = CLK2 (Homo sapiens (Human), UniProt P49760)
Description: as §1

ERK2 = ERK2 (Homo sapiens (Human), UniProt P28482)
Description: as §1

EphA3 = EphA3 (Homo sapiens (Human), UniProt P29320)
Description: as §1

EphA7 = EphA7 (Homo sapiens (Human), UniProt Q15375)
Description: as §1

EphB2 = EphB2 (Homo sapiens (Human), UniProt P29323)
Description: as §1

Fer = Fer (Homo sapiens (Human), UniProt P16591)
Description: as §1

Flt3 = Flt3 (Homo sapiens (Human), UniProt P36888)
Description: as §1

Flt4 = Flt4 (Homo sapiens (Human), UniProt P35916)
Description: as §1

GSK3beta = GSK3beta (Homo sapiens (Human), UniProt P49841)
Sequence of GSK3beta (P49841 whole entry): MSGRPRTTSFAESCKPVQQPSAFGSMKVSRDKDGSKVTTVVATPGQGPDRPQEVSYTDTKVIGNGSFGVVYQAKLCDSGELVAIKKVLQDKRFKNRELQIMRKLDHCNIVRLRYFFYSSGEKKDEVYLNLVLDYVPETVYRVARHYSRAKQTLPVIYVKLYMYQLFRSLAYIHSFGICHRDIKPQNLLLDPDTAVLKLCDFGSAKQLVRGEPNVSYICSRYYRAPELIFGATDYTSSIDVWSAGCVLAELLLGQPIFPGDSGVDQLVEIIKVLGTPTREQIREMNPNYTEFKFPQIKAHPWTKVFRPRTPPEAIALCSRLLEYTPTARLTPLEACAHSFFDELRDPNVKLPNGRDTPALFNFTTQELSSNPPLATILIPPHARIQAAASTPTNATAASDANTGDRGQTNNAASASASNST
Description: as §1

IKKbeta = IKKbeta (Homo sapiens (Human), UniProt O14920)
Description: as §1

IR Activated = IR Activated (Homo sapiens (Human), UniProt P06213)
Description: as §1

IRR = IRR (Homo sapiens (Human), UniProt P14616)
Description: as §1

JAK2 = JAK2 (Homo sapiens (Human), UniProt O60674)
Description: as §1

MAP4K2 = MAP4K2 (Homo sapiens (Human), UniProt Q12851)
Description: as §1

MAPKAP-K5 = MAPKAP-K5 (Homo sapiens (Human), UniProt Q8IW41)
Description: as §1

MARK2 = MARK2 (Homo sapiens (Human), UniProt Q7KZI7)
Description: as §1

MEK1 = MEK1 (Homo sapiens (Human), UniProt Q02750)
Description: as §1

MKNK2 = MKNK2 (Homo sapiens (Human), UniProt Q9HBH9)
Description: as §1

MST1 = MST1 (Homo sapiens (Human), UniProt Q13043)
Sequence of MST1 (Q13043 whole entry): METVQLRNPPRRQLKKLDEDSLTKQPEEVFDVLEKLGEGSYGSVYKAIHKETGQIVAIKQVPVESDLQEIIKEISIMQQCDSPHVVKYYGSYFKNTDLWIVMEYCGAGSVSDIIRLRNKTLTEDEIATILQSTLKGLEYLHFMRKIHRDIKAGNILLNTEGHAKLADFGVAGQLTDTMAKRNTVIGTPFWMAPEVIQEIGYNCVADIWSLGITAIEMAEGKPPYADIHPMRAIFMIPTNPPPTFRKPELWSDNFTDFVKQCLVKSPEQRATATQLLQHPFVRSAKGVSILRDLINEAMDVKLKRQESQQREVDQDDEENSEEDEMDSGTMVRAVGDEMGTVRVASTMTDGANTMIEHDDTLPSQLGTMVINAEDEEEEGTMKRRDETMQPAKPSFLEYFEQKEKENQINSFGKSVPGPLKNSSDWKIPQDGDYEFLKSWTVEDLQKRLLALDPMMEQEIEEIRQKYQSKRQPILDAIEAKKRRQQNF
Description: as §1

NEK11 = NEK11 (Homo sapiens (Human), UniProt Q8NG66)
Sequence of NEK11 (Q8NG66 whole entry): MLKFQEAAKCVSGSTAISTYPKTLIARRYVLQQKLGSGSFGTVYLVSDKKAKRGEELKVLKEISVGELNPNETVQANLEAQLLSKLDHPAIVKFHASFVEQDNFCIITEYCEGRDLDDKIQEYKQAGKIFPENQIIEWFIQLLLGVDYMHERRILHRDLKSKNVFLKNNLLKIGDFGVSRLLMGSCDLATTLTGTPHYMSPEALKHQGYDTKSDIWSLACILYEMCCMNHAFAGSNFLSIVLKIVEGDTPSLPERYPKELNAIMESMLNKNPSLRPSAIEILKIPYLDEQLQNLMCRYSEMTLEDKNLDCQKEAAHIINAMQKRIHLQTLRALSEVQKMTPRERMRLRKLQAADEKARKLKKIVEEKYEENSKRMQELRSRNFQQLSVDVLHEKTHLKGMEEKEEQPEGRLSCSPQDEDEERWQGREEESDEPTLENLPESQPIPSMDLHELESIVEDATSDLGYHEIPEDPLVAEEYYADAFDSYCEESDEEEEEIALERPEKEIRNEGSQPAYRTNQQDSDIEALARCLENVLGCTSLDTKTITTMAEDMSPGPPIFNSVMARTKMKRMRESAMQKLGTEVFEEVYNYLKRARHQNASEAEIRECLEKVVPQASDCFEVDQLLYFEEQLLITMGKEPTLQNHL
Description: as §1

PAK5 = PAK5 (Homo sapiens (Human), UniProt Q9P286)
Description: as §1

PAK6 = PAK6 (Homo sapiens (Human), UniProt Q9NQU5)
Sequence of PAK6 (Q9NQU5 whole entry): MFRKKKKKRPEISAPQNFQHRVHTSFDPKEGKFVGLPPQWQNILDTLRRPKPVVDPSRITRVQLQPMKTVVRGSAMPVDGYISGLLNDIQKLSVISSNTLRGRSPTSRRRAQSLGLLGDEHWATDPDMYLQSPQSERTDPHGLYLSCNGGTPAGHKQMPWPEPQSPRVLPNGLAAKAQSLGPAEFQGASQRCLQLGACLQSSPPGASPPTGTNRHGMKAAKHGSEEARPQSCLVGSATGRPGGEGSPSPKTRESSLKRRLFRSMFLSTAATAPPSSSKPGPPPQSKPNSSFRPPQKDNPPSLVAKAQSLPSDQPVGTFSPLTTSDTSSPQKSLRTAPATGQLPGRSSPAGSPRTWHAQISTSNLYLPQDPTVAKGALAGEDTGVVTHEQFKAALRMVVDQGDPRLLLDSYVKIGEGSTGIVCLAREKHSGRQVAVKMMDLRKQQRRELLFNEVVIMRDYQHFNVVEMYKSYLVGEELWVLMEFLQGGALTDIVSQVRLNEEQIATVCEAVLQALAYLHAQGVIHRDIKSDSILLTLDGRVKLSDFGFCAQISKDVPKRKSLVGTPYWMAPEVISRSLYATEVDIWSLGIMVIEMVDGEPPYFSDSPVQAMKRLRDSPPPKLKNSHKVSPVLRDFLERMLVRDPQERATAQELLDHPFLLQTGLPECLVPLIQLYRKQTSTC
Description: as §1

PDGFRalpha = PDGFRalpha (Homo sapiens (Human), UniProt P16234)
Description: as §1

PDGFRbeta = PDGFRbeta (Homo sapiens (Human), UniProt P09619)
Description: as §1

Pim-1 = Pim-1 (Homo sapiens (Human), UniProt P11309)
Sequence of Pim-1 (P11309 whole entry): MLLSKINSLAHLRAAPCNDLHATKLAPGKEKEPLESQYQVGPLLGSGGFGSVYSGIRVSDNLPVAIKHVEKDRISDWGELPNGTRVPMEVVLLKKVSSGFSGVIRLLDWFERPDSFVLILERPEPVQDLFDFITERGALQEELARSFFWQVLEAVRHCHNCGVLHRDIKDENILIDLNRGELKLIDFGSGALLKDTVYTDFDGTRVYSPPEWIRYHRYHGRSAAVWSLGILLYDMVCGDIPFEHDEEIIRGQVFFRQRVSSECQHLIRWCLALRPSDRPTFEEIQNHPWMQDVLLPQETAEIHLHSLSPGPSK
Description: as §1

Plk1 = Plk1 (Homo sapiens (Human), UniProt P53350)
Sequence of Plk1 (P53350 whole entry): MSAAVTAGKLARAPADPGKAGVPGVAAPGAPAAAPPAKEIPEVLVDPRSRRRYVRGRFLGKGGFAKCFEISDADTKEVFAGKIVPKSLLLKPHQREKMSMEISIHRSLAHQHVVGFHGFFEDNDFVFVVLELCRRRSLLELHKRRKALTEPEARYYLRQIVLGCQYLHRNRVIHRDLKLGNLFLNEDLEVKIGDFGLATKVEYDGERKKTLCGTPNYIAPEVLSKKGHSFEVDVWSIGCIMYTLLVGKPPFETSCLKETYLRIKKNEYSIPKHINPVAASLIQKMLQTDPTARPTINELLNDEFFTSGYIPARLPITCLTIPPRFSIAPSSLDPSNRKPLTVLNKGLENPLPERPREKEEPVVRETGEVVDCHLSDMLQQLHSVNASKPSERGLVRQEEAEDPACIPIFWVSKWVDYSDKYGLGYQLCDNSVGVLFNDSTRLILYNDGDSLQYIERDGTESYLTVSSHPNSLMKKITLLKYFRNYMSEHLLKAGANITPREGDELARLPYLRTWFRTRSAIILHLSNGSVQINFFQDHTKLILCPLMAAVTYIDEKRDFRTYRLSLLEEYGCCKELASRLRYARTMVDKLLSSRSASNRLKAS
Description: as §1

Rsk3 = Rsk3 (Homo sapiens (Human), UniProt Q15349)
Description: as §1

SIK = SIK (Homo sapiens (Human), UniProt P57059)
Description: as §1

SRPK2 = SRPK2 (Homo sapiens (Human), UniProt P78362)
Sequence of SRPK2 (P78362 whole entry): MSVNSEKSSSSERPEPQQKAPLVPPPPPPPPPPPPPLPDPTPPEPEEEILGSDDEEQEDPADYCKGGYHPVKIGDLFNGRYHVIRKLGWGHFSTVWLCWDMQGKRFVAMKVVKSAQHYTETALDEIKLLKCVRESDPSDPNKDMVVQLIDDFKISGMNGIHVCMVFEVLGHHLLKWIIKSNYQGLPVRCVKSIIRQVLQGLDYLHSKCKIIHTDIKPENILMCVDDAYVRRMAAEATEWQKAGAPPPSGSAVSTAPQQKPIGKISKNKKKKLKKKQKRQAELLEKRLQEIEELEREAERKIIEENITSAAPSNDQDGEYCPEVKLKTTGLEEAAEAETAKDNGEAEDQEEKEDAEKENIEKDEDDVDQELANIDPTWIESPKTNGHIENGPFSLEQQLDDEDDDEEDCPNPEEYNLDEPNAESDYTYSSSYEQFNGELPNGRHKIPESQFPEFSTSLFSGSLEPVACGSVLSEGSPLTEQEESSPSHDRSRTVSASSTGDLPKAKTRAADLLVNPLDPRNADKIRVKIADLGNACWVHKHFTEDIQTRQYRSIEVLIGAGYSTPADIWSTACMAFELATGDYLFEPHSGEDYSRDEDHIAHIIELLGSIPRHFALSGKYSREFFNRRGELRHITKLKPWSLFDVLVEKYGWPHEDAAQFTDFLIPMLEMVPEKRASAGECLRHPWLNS
Description: as §1

TAO1 = TAO1 (Homo sapiens (Human), UniProt Q7L7X3)
Description: as §1

TEC Activated = TEC Activated (Homo sapiens (Human), UniProt P42680)
Description: as §1

WNK3 = WNK3 (Homo sapiens (Human), UniProt Q9BYP7)
Description: as §1

p38beta = p38beta (Homo sapiens (Human), UniProt Q15759)
Description: as §1

p70S6K = p70S6K (Homo sapiens (Human), UniProt P23443)
Description: as §1

SMILES: Cc1c(-c2cnn(C)c2)nn(-c2ccccc2)c1NC(=O)N[C@H]1CCCc2ccccc21 [Example 2, (S)-1-(1′,4-dimethyl-1-phenyl-1H,1′H-3,4′-bipyrazol-5-yl)-3-(1,2,3,4-tetrahydronaphthalen-1-yl)urea]
- Avg. POC (AKT2): 132 POC
- Avg. POC (AURKA): 126 POC
- Avg. POC (BrSK1): 119 POC
- Avg. POC (CAMK2g): 107.5 POC
- Avg. POC (CK1_y): 100.5 POC
- Avg. POC (CK1delta): 117.5 POC
- Avg. POC (CLK2): 115.5 POC
- Avg. POC (ERK2): 112.5 POC
- Avg. POC (EphA3): 123.5 POC
- Avg. POC (EphA7): 116 POC
- Avg. POC (EphB2): 125 POC
- Avg. POC (Fer): 110.5 POC
- Avg. POC (Flt3): 96.5 POC
- Avg. POC (Flt4): 99 POC
- Avg. POC (GSK3beta): 126 POC
- Avg. POC (IKKbeta): 116 POC
- Avg. POC (IR Activated): 103 POC
- Avg. POC (IRR): 2.5 POC
- Avg. POC (JAK2): 233 POC
- Avg. POC (MAP4K2): 110 POC
- Avg. POC (MAPKAP-K5): 113.5 POC
- Avg. POC (MARK2): 109 POC
- Avg. POC (MEK1): 100.5 POC
- Avg. POC (MKNK2): 106.5 POC
- Avg. POC (MST1): 111.5 POC
- Avg. POC (NEK11): 108.5 POC
- Avg. POC (PAK5): 109.5 POC
- Avg. POC (PAK6): 119.5 POC
- Avg. POC (PDGFRalpha): 123 POC
- Avg. POC (PDGFRbeta): 149 POC
- Avg. POC (Pim-1): 173 POC
- Avg. POC (Plk1): 95 POC
- Avg. POC (Rsk3): 106 POC
- Avg. POC (SIK): 121.5 POC
- Avg. POC (SRPK2): 106 POC
- Avg. POC (TAO1): 110.5 POC
- Avg. POC (TEC Activated): 153 POC
- Avg. POC (WNK3): 109.5 POC
- Avg. POC (p38beta): 113 POC
- Avg. POC (p70S6K): 172 POC

SMILES: Cc1c(-c2cnn(C)c2)nn(-c2ccccc2)c1NC(=O)NC1CCOc2cc(F)ccc21 (centres unmarked) [Example 12, 1-(1′,4-dimethyl-1-phenyl-1H,1′H-[3,4′-bipyrazol]-5-yl)-3-(7-fluorochroman-4-yl)urea]
- Avg. POC (AKT2): 127 POC
- Avg. POC (AURKA): 111 POC
- Avg. POC (BrSK1): 111.5 POC
- Avg. POC (CAMK2g): 107.5 POC
- Avg. POC (CK1_y): 101 POC
- Avg. POC (CK1delta): 109.5 POC
- Avg. POC (CLK2): 100 POC
- Avg. POC (ERK2): 106.5 POC
- Avg. POC (EphA3): 114.5 POC
- Avg. POC (EphA7): 96.5 POC
- Avg. POC (EphB2): 112 POC
- Avg. POC (Fer): 100.5 POC
- Avg. POC (Flt3): 90 POC
- Avg. POC (Flt4): 83.5 POC
- Avg. POC (GSK3beta): 109.5 POC
- Avg. POC (IKKbeta): 102 POC
- Avg. POC (IR Activated): 109 POC
- Avg. POC (IRR): 91 POC
- Avg. POC (JAK2): 122.5 POC
- Avg. POC (MAP4K2): 107.5 POC
- Avg. POC (MAPKAP-K5): 96 POC
- Avg. POC (MARK2): 105.5 POC
- Avg. POC (MEK1): 106.5 POC
- Avg. POC (MKNK2): 103.5 POC
- Avg. POC (MST1): 92 POC
- Avg. POC (NEK11): 84.5 POC
- Avg. POC (PAK5): 143 POC
- Avg. POC (PAK6): 139 POC
- Avg. POC (PDGFRalpha): 104.5 POC
- Avg. POC (PDGFRbeta): 125.5 POC
- Avg. POC (Pim-1): 106 POC
- Avg. POC (Plk1): 98.5 POC
- Avg. POC (Rsk3): 90 POC
- Avg. POC (SIK): 133.5 POC
- Avg. POC (SRPK2): 101.5 POC
- Avg. POC (TAO1): 104 POC
- Avg. POC (TEC Activated): 122.5 POC
- Avg. POC (WNK3): 112.5 POC
- Avg. POC (p38beta): 115.5 POC
- Avg. POC (p70S6K): 124.5 POC
